Measured values reported in patent publication US11964981B1, “Substituted pyrimido[4,5-b]indoles as CK2 inhibitors” (KING FAISAL UNIVERSITY, priority 2023, dated 2024).

Columns and labels:
H1299 (lung) = assay: In vitro cytotoxic activity MTT assay, H1299; format: cell-based; conditions: Homo sapiens, NCI-H1299; H1299 (lung) cells, exposed for 96 hours; read-out: IC50, concentration of compound eliciting a 50% inhibition of cell proliferation
Procedure: (§1) Compounds 1-16 were screened for their in vitro cytotoxic activity utilizing a 3-(4,5-dimethyl-thiazol-2-yl)-2,5-diphenyltetrazolium bromide (MTT) assay against selected cancer human cell lines consisting of PC3 (prostate), HCT116 (colon), A375 (melanoma), H1299 (lung), MIAPaCa-2 (pancreas), HL60 (leukemia), MCF7 (breast), MDA-MB-231 (breast) (T. Mosmann, J. Immunol. Meth., 1983, 65, 55-63). The cells were cultured at 37° C. in RMPI1640 medium supplemented with 10% fetal bovine serum, 50 IU/mL penicillin, and 50 μg/mL streptomycin in a 5% CO2 incubator. All cells were sub-cultured 3 times/week by trypsinisation. Viable cells were seeded and allowed to adhere for 12 h before a test drug was added in 96-well plates at an initial density of 1.0×10^5 cells/mL. Tumor cell lines were separately exposed to various concentrations of the tested compounds followed by incubation at a temperature of 37° C. during 96 h inside a medium of fresh RMPI 1640. Cells were subsequently incubated at 37° C. using MTT at 0.5 mg/mL during 4 hours. After removal of supernatant, formazan crystals were dissolved in isopropanol and the optical density was measured at 570 nm. CX-4945 was used as a positive control.

A375 (melanoma) = assay: In vitro cytotoxic activity MTT assay, A375; format: cell-based; conditions: Homo sapiens, A-375; A375 (melanoma) cells, exposed for 96 hours; read-out: IC50, concentration of compound eliciting a 50% inhibition of cell proliferation
Procedure: as §1

MIAPaCa-2 (pancreas) = assay: In vitro cytotoxic activity MTT assay, MIAPaCa-2; format: cell-based; conditions: Homo sapiens, MIA PaCa-2; MIAPaCa-2 (pancreas) cells, exposed for 96 hours; read-out: IC50, concentration of compound eliciting a 50% inhibition of cell proliferation
Procedure: as §1

HCT116 (colon) = assay: In vitro cytotoxic activity MTT assay, HCT116; format: cell-based; conditions: Homo sapiens, HCT-116; HCT116 (colon) cells, exposed for 96 hours; read-out: IC50, concentration of compound eliciting a 50% inhibition of cell proliferation
Procedure: as §1

MCF7 (breast) = assay: In vitro cytotoxic activity MTT assay, MCF7; format: cell-based; conditions: Homo sapiens; MCF7 (breast) cells, exposed for 96 hours; read-out: IC50, concentration of compound eliciting a 50% inhibition of cell proliferation
Procedure: as §1

MDA-MB-231 (breast) = assay: In vitro cytotoxic activity MTT assay, MDA-MB-231; format: cell-based; conditions: Homo sapiens; MDA-MB-231 (breast) cells, exposed for 96 hours; read-out: IC50, concentration of compound eliciting a 50% inhibition of cell proliferation
Procedure: as §1

PC3 (prostate) = assay: In vitro cytotoxic activity MTT assay, PC3; format: cell-based; conditions: Homo sapiens, Prostate cell; PC3 (prostate) cells, exposed for 96 hours; read-out: IC50, concentration of compound eliciting a 50% inhibition of cell proliferation
Procedure: as §1

recombinant human CK2 = target: T1, recombinant human CK2 (Homo sapiens, UniProt P68400); assay: CK2 Kinase Assay (radiometric, 33P-ATP); format: biochemical; conditions: final ATP concentration 15 μM, 10 min at 30° C., eight concentrations; read-out: protein kinase CK2 IC50
T1 construct: purchased Millipore
Procedure: CK2 Kinase Assay was conducted using the protocol as described in Pierre F. et al; J. Med. Chem. 2011, 54, 635-654. The tested compounds in aqueous solution were added at a volume of 10 μL to a reaction mixture comprising 10 μL of assay dilution buffer (ADB; 20 mM MOPS, pH 7.2, 25 mM β-glycerol phosphate, 5 mM EGTA, 1 mM sodium orthovanadate, and 1 mM dithiothreitol), 10 μL of substrate peptide (RRRDDDSDDD, dissolved in ADB at a concentration of 1 mM), 10 μL of recombinant human CK2 (RROP-holoenzyme, 25 ng dissolved in ADB; Millipore). Reactions were initiated by the addition of 10 μL of ATP solution (90% 75 mMMgCl2, 75 μM ATP (final ATP concentration:15 μM) dissolved in ADB; 10% [γ-33P] ATP (stock 1 mCi/100 μL; 3000 Ci/mmol (Perkin-Elmer) and maintained for 10 min at 30° C. The reactions were quenched with 100 μL of 0.75% phosphoric acid and then transferred to and filtered through a phosphor cellulose filter plate (Millipore). After washing each well five times with 0.75% phosphoric acid, the plate was dried under vacuum for 5 min and, following the addition of 15 μL of scintillation fluid to each well, the residual radioactivity was measured using a Wallac luminescence counter. The IC50 values were derived from eight concentrations of test inhibitors.

HL60 (leukemia) = assay: In vitro cytotoxic activity MTT assay, HL60; format: cell-based; conditions: Homo sapiens, HL-60; HL60 (leukemia) cells, exposed for 96 hours; read-out: IC50, concentration of compound eliciting a 50% inhibition of cell proliferation
Procedure: as §1

T1 sequence (P68400 whole entry): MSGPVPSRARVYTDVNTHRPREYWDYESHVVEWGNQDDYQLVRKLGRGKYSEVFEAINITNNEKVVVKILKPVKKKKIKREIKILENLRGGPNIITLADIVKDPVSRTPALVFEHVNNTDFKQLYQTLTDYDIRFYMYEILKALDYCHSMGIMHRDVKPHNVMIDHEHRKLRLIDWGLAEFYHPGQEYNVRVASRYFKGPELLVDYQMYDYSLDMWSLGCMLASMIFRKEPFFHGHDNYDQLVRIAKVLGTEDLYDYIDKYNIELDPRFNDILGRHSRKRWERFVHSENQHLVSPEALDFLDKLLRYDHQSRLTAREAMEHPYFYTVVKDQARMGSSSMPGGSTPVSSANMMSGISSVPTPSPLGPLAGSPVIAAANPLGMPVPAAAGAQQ
T1 sequence (P67870 whole entry partner): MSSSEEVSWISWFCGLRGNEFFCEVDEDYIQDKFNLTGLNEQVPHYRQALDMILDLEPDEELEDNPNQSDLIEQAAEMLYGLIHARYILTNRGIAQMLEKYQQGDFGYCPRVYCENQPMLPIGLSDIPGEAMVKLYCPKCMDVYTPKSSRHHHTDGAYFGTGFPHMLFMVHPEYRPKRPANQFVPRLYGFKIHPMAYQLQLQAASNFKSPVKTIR

O=C(O)c1ccc2[nH]c3ncnc(Nc4cccc(Cl)c4)c3c2c1 [Example 1, 4-((3-chlorophenyl)amino)-9H-pyrimido[4,5-b]indole-6-carboxylic acid]
IC50 (H1299 (lung)): 4.5 µM | IC50 (A375 (melanoma)): 3.3 µM | IC50 (MIAPaCa-2 (pancreas)): 0.9 µM | IC50 (HCT116 (colon)): 1.8 µM | IC50 (MCF7 (breast)): 4.6 µM | IC50 (MDA-MB-231 (breast)): 2.9 µM | IC50 (PC3 (prostate)): 1.4 µM | IC50 (recombinant human CK2): 0.068 µM | IC50 (HL60 (leukemia)): 3 µM
